Columns and labels:
[1] = Brain uptake of oral [U13C]GIcNAc, LC-MS/MS of perfused brains
[2] = system: mouse neural stem cells (NSC) derived from the medial ganglionic eminence of E12.5 mouse embryos; assay: Oligodendrogenesis from mouse neural stem cells in vitro (flow cytometry, immunofluorescence); type: cell-based; conditions: NSC in PDGF-AA differentiation media, 48 hrs
Excerpt: Mice were bred and utilized as approved by the University of California, Irvine Institutional Animal Care and Use Committee. Dorsal forebrain cortical tissue was dissected from the medial ganglionic eminence (MGE) at embryonic day 12.5 (E12) of CD1 mice (Charles River) or Mgat5−/− C57BL/6 mice and their wildtype littermates and placed in dissection buffer comprising PBS, 0.6% glucose, and 50 U/mL Pen/Strep. Tissue from multiple embryos within the same litter were pooled, and a subsequent culture from a single litter was considered a biological repeat. The tissue was dissociated using 0.05% Trypsin-EDTA at 37° C. for 10 min, followed by treatment with soybean trypsin inhibitor (Life Technologies). Dissociated cells were re-suspended in proliferation medium comprising DMEM, 1× B27, 1× N2, 1 mM sodium pyruvate, 2 mM L-glutamine, 1 mM N-acetylcysteine, 20 ng/mL EGF (PeproTech), 10 ng/mL bFGF (PeproTech), and 2 μg/mL heparin and seeded at 150,000 cells/mL (non-tissue culture treated plastic plates) and grown as non-adherent spheres. Cell cultures were passaged approximately every 3 days using enzyme-free NeuroCult Chemical Dissociation Kit (Mouse) (StemCell Technologies). Cultures were passaged at least once prior to experimental use. For experiments, passaged cells were cultured in proliferation media (bFGF and EGF) or differentiation media (bFGF (10 ng/ml) and PDGF-AA (10 ng/ml); Life technologies) for 48 hours with or without the presence of GIcNAc (Ultimate Glucosamine, Wellesley Therapeutics) or kifunensine (GlycoSyn). Neurospheres were dispersed using the enzyme-free NeuroCult kit before being analyzed by flow cytometry using one or more of the following antibodies: anti-CD140a/PDGF-RA PE conjugate (1:200, A15785, Molecular Probes), anti-04 Alexa Fluor 488 conjugated (1:200, FAB1326G, RnD systems), Anti-GaIC Alexa Fluor 647 1:200, MAB342-AF647, Millipore), Anti-Olig2 (1:200, AB9610, Millipore) with anti-rabbit Alexa Fluor 488 (1:200, thermofisher).
For neural stem cell (NSC) immunofluorescence, whole neurospheres were seeded onto laminin-coated coverslips (Neuvitro) in proliferation medium. After 24 hours, proliferation media was removed and replaced with differentiation medium (same components as proliferation medium but excluding EGF, bFGF, and heparin) to induce differentiation. For analysis of mouse brains, brains were incubated in 30% sucrose for at least 72 hours, embedded in OCT (Tissue-tek), frozen for at least 48 hours at −80° C., and then cut at 40 microns on a cryostat. Multiple sections from −1 bregma to −2.5 bregma were then stained with antibodies for MBP (1:100; MAB386, Millipore), Olig2 (1:200; AB9610, Millipore), CC1 (1:100; OP90, Millipore), degraded MBP (1:200, AB5864, Millipore) and Amyloid Precursor Protein (APP, 1:200; clone 22C11). After overnight incubation with primary antibody, tissues were washed and incubated with secondary antibodies: goat anti-rat Alexa-fluor 488 (1:200, Thermofisher), goat anti-rabbit TxRd (1:200, Thermofisher). APP is a marker for neuro-axonal damage while co-staining for CC1 and Olig2 are markers of mature oligodendrocytes. In order to examine the amount of myelin, slices were incubated in Fluoromyelin (1:300; F34651, Thermofisher) for 45 minutes. Images were acquired on a Keyence fluorescence microscope. Mean fluorescence intensity of the medial corpus callosum was measured using ImageJ.
Oligodendrogenesis were examined in vitro using mouse neural stem cells (NSC) derived from the medial ganglionic eminence of E12.5 mouse embryos, where OPC's first appear. […] Consistent with increased PDGFRα surface expression, GIcNAc also promoted pre-oligodendrocyte differentiation as evidenced by augmented expression of Oligodendrocyte Transcription Factor (OLIG2) and increased numbers of 04 and GaIC positive cells (FIGS. 1A, 1B and 1C, FIGS. 5B and 5C). […]

## N-Acetyl-D-[UL-^13C6]glucosamine [[U^13C]GIcNAc]
[1]; suckling pups of treated lactating mothers
  UDP-[U13C]-HexNAc in brain: identified
[1]; treated adult female mice, 1 mg/mL in drinking water, perfused brains
  UDP-[U13C]-HexNAc in brain: identified

## O=C1N[C@@H]2[C@@H](O)[C@@H](O)[C@H](O)[C@@H](CO)N2C1=O [kifunensine, reference compound]
[2]
  PDGFRα surface expression: significantly reduced
  number of O4 cells induced by PDGF-AA differentiation media: significantly reduced

— patent US20240415858A1, “PROMOTING MYELINATION BY N-ACETYLGLUCOSAMINE AND MODULATION OF N-GLYCAN BRANCHING” (THE REGENTS OF THE UNIVERSITY OF CALIFORNIA, priority 2021, published 2024)
